{"source": "BindingDB's records for PubMed 38330869", "about": "(National Institute of Pharmaceutical Education and …)", "experiment": "Inhibition of wild type influenza A virus H5N1 (A/chicken/Hubei/327/2004) matrix protein 2 transfected in yeast assessed as yeast growth restoration measured after 46 to 48 hrs"}
{"smiles": "Cc1cc(CNS(=O)(=O)c2ccc([N+](=O)[O-])cc2)c(C)o1", "values": [{"measurement": "EC50", "result": 1710, "unit": "nM"}]}
{"smiles": "Cc1cc(CNS(=O)(=O)c2ccc(Cl)cc2)c(C)o1", "values": [{"measurement": "EC50", "result": 3070, "unit": "nM"}]}
{"smiles": "Cc1cc(CNS(=O)(=O)c2ccc([N+](=O)[O-])cc2)c(C)s1", "values": [{"measurement": "EC50", "result": 2210, "unit": "nM"}]}
{"smiles": "Cc1cc(CNS(=O)(=O)c2ccc(C#N)cc2)c(C)s1", "values": [{"measurement": "EC50", "result": 1400, "unit": "nM"}]}
{"smiles": "Cc1cc(CNS(=O)(=O)c2ccc(Cl)cc2)c(C)s1", "values": [{"measurement": "EC50", "result": 1080, "unit": "nM"}]}
{"smiles": "Cc1cc(CNS(=O)(=O)c2ccc(Br)cc2)c(C)s1", "values": [{"measurement": "EC50", "result": 1580, "unit": "nM"}]}
{"smiles": "O=[N+]([O-])c1ccc(S(=O)(=O)NCc2csc3ccccc23)cc1", "values": [{"measurement": "EC50", "result": 3440, "unit": "nM"}]}
